Patent US11147272B2, “Pyridone compounds and agricultural and horticultural fungicides comprising the same as active ingredients” (MITSUI CHEMICALS AGRO, INC., priority 2017, dated 2021)

Experiments:
Alternaia brassicicola = assay: Test Example C: Alternaria sooty spot on cabbage; type: in vivo
From the text: Seeds of a test plant (cabbage variety: Shikidori) were planted and cultivated until the cotyledons extended.
<Control Value> Control value=100{1−(n/3)}

[1] = tested on: Blumeria graminis f. sp. hordei; assay: Test Example D: Powdery mildew on barley; details: for Test D control value class: class of control value
Puccinia recondita = assay: Test Example E: Brown rust on wheat; type: in vivo
Botrytis cinerea = assay: Test Example B: Gray mold on tomato; details: for Test B control value class: class of control value
Phytophthora infestans = assay: whole plant or invertebrate; type: in vivo; details: for Test F control value class: class of control value
Magnaporthe grisea = assay: whole plant or invertebrate; type: in vivo; details: for Test A control value class: class of control value
[2] = tested on: Colletotrichum orbiculare; assay: Test Example H: Anthracnose on cucumber; details: for Test H control value class: Anthracnose on cucumber (Sagami Hanjiro), 2.5 ml/pot, assessed 6 to 10 days after inoculation; for Test H control value: 6 to 10 days after inoculation
Procedure: Seeds of a test plant (cucumber variety: Sagami Hanjiro) were planted and cultivated until the first leaf appeared. In the test, the inventive compounds were dissolved into dimethyl sulfoxide-methanol mixture solution (volume ratio: 9/1), and the resultant solutions were diluted with well water to a concentration of 250 ppm to obtain the drug solutions. The drug solutions were sprayed to the test plant (2.5 ml/pot). After the drug solutions dried, a conidial suspension (2-4×10^5 conidia/ml) of Colletotrichum orbiculare was inoculated to the plant by spraying. After the inoculation, the plant was kept in a mist chamber at room temperature of 20 to 23° C. for about 24 hours to promote the onset of disease. The degrees of disease development were investigated 6 to 10 days after the inoculation, and the effectiveness of the drug solutions was evaluated.
(§1) In Test Examples described above, the degrees of disease development were evaluated in increments of 0.05 from 0 (as no incidence of disease) to 3 (as the degree of disease development in an untreated plant group). Further, control values were calculated using the following equation based on the degree of disease development.
(§2) n=Degree of disease development in each treated group
In the table, H: more than 50% control value, L: 50% or less control value, and nt: not tested.

Plasmopara viticola = assay: Test Example G: Downy mildew on vine; details: for Test G control value class: Downy mildew on vine (Neomuscat), 2.5 ml/pot, assessed 7 to 10 days after inoculation; for Test G control value: 7 to 10 days after inoculation
Procedure: Seeds of a test plant (grape variety: Neomuscat) were planted and cultivated until three to four first leaves appeared. In the test, the inventive compounds were dissolved into dimethyl sulfoxide-methanol mixture solution (volume ratio: 9/1), and the resultant solutions were diluted with well water to a concentration of 250 ppm to obtain the drug solutions. The drug solutions were sprayed to the test plant (2.5 ml/pot). After the drug solutions dried, a zoosporangia suspension (1-2×10^4 zoosporangia/ml) of Plasmopara viticola was inoculated to the plant by spraying. After the inoculation, the plant was kept in a mist chamber at room temperature of 20° C. for about 24 hours to promote the onset of disease. The degrees of disease development were investigated 7 to 10 days after the inoculation, and the effectiveness of the drug solutions was evaluated.
as §1, §2

[3] = Alternaria sooty spot on cabbage, class of control value
[4] = Brown rust on wheat, class of control value
[5] = Alternaria sooty spot on cabbage, control value class
[6] = Powdery mildew on barley, control value class
[7] = Brown rust on wheat, control value class
[8] = Gray mold on tomato, control value class
[9] = Late blight on tomato, control value class
[10] = Blast on rice, control value class
[11] = Anthracnose on cucumber, 250 ppm spray
[12] = Downy mildew on vine, 250 ppm spray
[13] = 250 ppm drug solution sprayed on test plant
[14] = 250 ppm drug solution sprayed (2.5 ml/pot), cucumber Sagami Hanjiro
[15] = 250 ppm drug solution sprayed (2.5 ml/pot), grape Neomuscat

SMILES	Test C control value class (Alternaia brassicicola; [3])	Test D control value class ([1]; Powdery mildew on barley)	Test E control value class (Puccinia recondita; [4])	Test B control value class (Botrytis cinerea; Gray mold on tomato)	Test F control value class (Phytophthora infestans; Late blight on tomato)	Test A control value class (Magnaporthe grisea; Blast on rice)	Test H control value class ([2]; 250 ppm spray)	Test G control value class (Plasmopara viticola; 250 ppm spray)	Test C control value (Alternaia brassicicola; [5])	Test D control value [1, 6]	Test E control value (Puccinia recondita; [7])	Test B control value (Botrytis cinerea; [8])	Test F control value (Phytophthora infestans; [9])	Test A control value (Magnaporthe grisea; [10])	Test H control value [2, 11]	Test G control value (Plasmopara viticola; [12])	further results
CCn1c(-c2c(F)cc(OC)cc2F)c(C(C)C)cc(Cl)c1=O [Compound No. 11, 3-Chloro-6-(2,6-difluoro-4-methoxyphenyl)-1-ethyl-5-isopropylpyridin-2(1H)-one]	–	–	–	–	–	–	–	–	–	–	–	–	–	–	–	–	pest or weed control at 250 µg/mL (Alternaia brassicicola; Brassica oleracea, topical, Alternaria sooty spot on cabbage, class of control value, read-out: Test C control value class): > 50%; pest or weed control at 250 µg/mL ([1]; Blumeria graminis, in Hordeum vulgare, topical, read-out: Test D control value class): > 50%; pest or weed control at 250 µg/mL (Puccinia recondita; Puccinia recondita, topical, Brown rust on wheat, class of control value, read-out: Test E control value class): > 50%; pest or weed control at 250 µg/mL (Botrytis cinerea; Botrytis cinerea, in Solanum lycopersicum, topical, read-out: Test B control value class): > 50%; pest or weed control at 250 µg/mL (Phytophthora infestans; Phytophthora infestans, in Solanum lycopersicum, topical, read-out: Test F control value class): < 50%; pest or weed control at 250 µg/mL (Magnaporthe grisea; Pyricularia oryzae, in Oryza sativa, read-out: Test A control value class): > 50%; pest or weed control at 250 ppm ([2]; Colletotrichum orbiculare, in Cucumis sativus, topical, read-out: Test H control value class): > 50%; pest or weed control at 250 ppm (Plasmopara viticola; Plasmopara viticola, topical, read-out: Test G control value class): < 50%
CCn1c(-c2c(F)cc(F)cc2F)c(C(C)(C)OC)cc(Cl)c1=O [compound 109]	H (more than 50% control value)	H (more than 50% control value)	H (more than 50% control value)	H (more than 50% control value)	L (50% or less control value)	H (more than 50% control value)	H (more than 50% control value)	L (50% or less control value)	–	–	–	–	–	–	–	–	–
CCCCCCCCc1cc(Cl)c(=O)n(CC)c1-c1ccc(F)cc1Cl [compound 271]	–	–	–	–	–	–	–	–	L (50% or less control value)	H (more than 50% control value)	L (50% or less control value)	L (50% or less control value)	L (50% or less control value)	L (50% or less control value)	L (50% or less control value)	L (50% or less control value)	–
CCc1ccc(=O)n(C)c1-c1ccc(OC)cc1Cl [compound 322]	–	–	–	–	–	–	–	–	L (50% or less control value)	L (50% or less control value)	H (more than 50% control value)	H (more than 50% control value)	L (50% or less control value)	L (50% or less control value)	H (more than 50% control value)	L (50% or less control value)	–
CCn1c(-c2c(F)cc(F)cc2F)c(C(C)(CC)OC)cc(Cl)c1=O (centres unmarked) [compound 54]	H (more than 50% control value)	H (more than 50% control value)	H (more than 50% control value)	H (more than 50% control value)	L (50% or less control value)	H (more than 50% control value)	H (more than 50% control value)	L (50% or less control value)	–	–	–	–	–	–	–	–	–
CCCc1ccc(=O)n(CC)c1-c1ccc(F)cc1Br [compound 361]	–	–	–	–	–	–	–	–	L (50% or less control value)	H (more than 50% control value)	H (more than 50% control value)	H (more than 50% control value)	L (50% or less control value)	H (more than 50% control value)	L (50% or less control value)	L (50% or less control value)	–
CCc1ccc(=O)n(CC)c1-c1c(F)cc(OC)cc1F [compound 388]	–	–	–	–	–	–	–	–	–	–	–	–	–	–	–	–	Test C control value (Alternaia brassicicola; [13]): H (more than 50% control value); Test D control value [1, 13]: L (50% or less control value); Test E control value (Puccinia recondita; [13]): H (more than 50% control value); Test B control value (Botrytis cinerea; [13]): H (more than 50% control value); Test F control value (Phytophthora infestans; [13]): L (50% or less control value); Test A control value (Magnaporthe grisea; [13]): H (more than 50% control value); Test H control value [2, 14]: H (more than 50% control value); Test G control value (Plasmopara viticola; [15]): L (50% or less control value)
CCc1cc(Cl)c(=O)n(CC)c1-c1ccc(F)cc1Br [compound 342]	–	–	–	–	–	–	–	–	H (more than 50% control value)	H (more than 50% control value)	H (more than 50% control value)	H (more than 50% control value)	L (50% or less control value)	H (more than 50% control value)	H (more than 50% control value)	L (50% or less control value)	–
CCC(O)c1cc(Cl)c(=O)n(CC)c1-c1c(F)cc(F)cc1F (centres unmarked) [compound 46]	H (more than 50% control value)	H (more than 50% control value)	H (more than 50% control value)	H (more than 50% control value)	L (50% or less control value)	H (more than 50% control value)	H (more than 50% control value)	L (50% or less control value)	–	–	–	–	–	–	–	–	–
CC(C)C(O)c1cc(Cl)c(=O)n(C)c1-c1c(F)cc(F)cc1F (centres unmarked) [compound 447]	–	–	–	–	–	–	–	–	–	–	–	–	–	–	–	–	Test C control value (Alternaia brassicicola; [13]): H (more than 50% control value); Test D control value [1, 13]: H (more than 50% control value); Test E control value (Puccinia recondita; [13]): H (more than 50% control value); Test B control value (Botrytis cinerea; [13]): H (more than 50% control value); Test F control value (Phytophthora infestans; [13]): L (50% or less control value); Test A control value (Magnaporthe grisea; [13]): H (more than 50% control value); Test H control value [2, 14]: H (more than 50% control value); Test G control value (Plasmopara viticola; [15]): H (more than 50% control value)
CCn1c(-c2ccc(Cl)cc2F)c(CC(C)C)cc(Br)c1=O [compound 159]	H (more than 50% control value)	H (more than 50% control value)	H (more than 50% control value)	H (more than 50% control value)	L (50% or less control value)	H (more than 50% control value)	H (more than 50% control value)	H (more than 50% control value)	–	–	–	–	–	–	–	–	–
CCn1c(-c2ccc(OC)cc2Cl)c(CC(C)C)cc(Cl)c1=O [compound 239]	–	–	–	–	–	–	–	–	H (more than 50% control value)	H (more than 50% control value)	H (more than 50% control value)	H (more than 50% control value)	L (50% or less control value)	H (more than 50% control value)	H (more than 50% control value)	L (50% or less control value)	–
CCCc1ccc(=O)n(CC(F)F)c1-c1c(F)cccc1F [compound 491]	–	–	–	–	–	–	–	–	–	–	–	–	–	–	–	–	Test C control value (Alternaia brassicicola; [13]): H (more than 50% control value); Test D control value [1, 13]: H (more than 50% control value); Test E control value (Puccinia recondita; [13]): H (more than 50% control value); Test B control value (Botrytis cinerea; [13]): H (more than 50% control value); Test F control value (Phytophthora infestans; [13]): L (50% or less control value); Test A control value (Magnaporthe grisea; [13]): L (50% or less control value); Test H control value [2, 14]: L (50% or less control value); Test G control value (Plasmopara viticola; [15]): L (50% or less control value)
CCCOC(C)(c1cc(Cl)c(=O)n(CC)c1-c1ccc(F)cc1)C(C)C (centres unmarked) [compound 216]	–	–	–	–	–	–	–	–	L (50% or less control value)	H (more than 50% control value)	L (50% or less control value)	L (50% or less control value)	L (50% or less control value)	L (50% or less control value)	L (50% or less control value)	L (50% or less control value)	–
CCn1c(-c2ccc(Br)cc2)c(CC(C)C)ccc1=O [compound 175]	L (50% or less control value)	H (more than 50% control value)	H (more than 50% control value)	H (more than 50% control value)	L (50% or less control value)	L (50% or less control value)	L (50% or less control value)	L (50% or less control value)	–	–	–	–	–	–	–	–	–
CCn1c(-c2c(F)cc(F)cc2F)c(C(C)(O)C2CC2)cc(Cl)c1=O (centres unmarked) [compound 261]	–	–	–	–	–	–	–	–	H (more than 50% control value)	H (more than 50% control value)	H (more than 50% control value)	H (more than 50% control value)	L (50% or less control value)	H (more than 50% control value)	H (more than 50% control value)	H (more than 50% control value)	–
